{
  "source": "patent US20190183939A1",
  "about": "“CELL THERAPY USING MIDBRAIN-TYPE NEURAL STEM CELLS TREATED WITH VITAMIN C” (INDUSTRY-UNIVERSITY COOPERATION FOUNDATION HANYANG …, priority 2017, published 2019)",
  "key": {"[1]": {"system": "Foxa2 and Lmx1a promoters", "assay": "DIP-qPCR and ChIP-qPCR on Foxa2 and Lmx1a promoters", "assay_type": "cell-based, rat", "details": "Quercetin 10 μM, 3 hours prior to VC treatment", "excerpt": "(§1) Foxa2 and Nurr1 binding sites were identified using the Jaspar database (http://jaspar.genereg.net/) using an 80% score threshold. Predicted Foxa2 and Nurr1 binding sites were coupled with phylogenetic footprinting to eliminate spurious predictions with specified position weight matrix (PWM) settings, as described in the following reference. [Sandelin, A., and Wasserman, W. W. (2004). Constrained binding site diversity within families of transcription factors enhances pattern discovery bioinformatics. Journal of molecular biology 338, 207-215] (Table 2). ChIP and DIP assays were carried out as described in the following reference. [Prolonged membrane depolarization enhances midbrain dopamine neuron differentiation via epigenetic histone modifications. Stem Cells 29, 1861-1873]. Briefly, chromatin or genomic DNA was sheared to an average of 200-500 bp in length using a sonication Bioruptor (BMS, Seoul, Korea) and immunoprecipitated using the antibodies listed in Table 1. Immunoprecipitated DNA fragments were collected using magnetic beads (Invitrogen), purified, and subjected to real-time PCR using the primers listed in Table 3. The comparative cycle threshold method was used to quantify the results. Data were normalized to the input DNA."}, "Nurr1 and TH promoters": {"system": "Nurr1 and TH promoters", "assay": "DIP-qPCR and ChIP-qPCR on Nurr1 and TH promoters", "assay_type": "cell-based, rat", "details": "Quercetin 10 μM, 3 hours prior to VC treatment", "excerpt": "as §1"}},
  "data": [
    {"smiles": "O=c1c(O)c(-c2ccc(O)c(O)c2)oc2cc(O)cc(O)c12", "note": "[quercetin]", "values": [
      {"measurement": "effect on VC-mediated changes to 5mC/5hmC and H3K27m3/H3K9m3 on Foxa2 and Lmx1a genes", "setting": "[1]", "value": "abolished"},
      {"measurement": "effect on VC-induced epigenetic changes on Nurr1 and Th promoter", "setting": "Nurr1 and TH promoters", "value": "abolished"}
    ]}
  ]
}
